PubChem BioAssay (NCI)
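Method: 48-hour compound exposure of cells in 96-well plates, five concentrations, linear interpolation of endpoints. TGI: total growth inhibition.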

Tests used:
Assay in all cases: NCI-60 cell line screen, 48 h
HCT-116 colon = tested on: HCT-116 colon
HT29 colon = tested on: HT29 colon
SR leukemia = tested on: SR leukemia
IGROV1 ovarian = tested on: IGROV1 ovarian
BT-549 breast = tested on: BT-549 breast
A498 renal = tested on: A498 renal
COLO 205 colon = tested on: COLO 205 colon
MOLT-4 leukemia = tested on: MOLT-4 leukemia
SW-620 colon = tested on: SW-620 colon
M14 melanoma = tested on: M14 melanoma

Row | SMILES | TGI (HCT-116 colon) [µM] | TGI (HT29 colon) [µM] | TGI (SR leukemia) [µM] | TGI (IGROV1 ovarian) [µM] | TGI (BT-549 breast) [µM] | TGI (A498 renal) [µM] | TGI (COLO 205 colon) [µM] | TGI (MOLT-4 leukemia) [µM] | TGI (SW-620 colon) [µM] | TGI (M14 melanoma) [µM]
1 | COc1cc(OC)c(-c2ccc(OCc3ccccc3)c3c(OC)cc(C)cc23)c2c1C(C)=N[C@H](C)C2 | 3.97 | 3.84 | 3.08 | 3.57 | 7.93 | 3.93 | 4.5 | 4.28 | 4.68 | 3.79
2 | O=C1NC(NNc2ccccc2)=N/C1=C\c1ccccc1O | > 100 | > 100 | > 100 | > 100 | > 100 | > 100 | > 100 | > 100 | > 100 | > 100
3 | O=C1C2CC=CCC2C(=O)N1n1c(Cc2ccc(Cl)cc2)n[nH]c1=O (stereo not given) | > 100 | > 100 | > 100 | > 100 | > 100 | > 100 | > 100 | > 100 | > 100 | > 100
4 | COC(=O)c1cc2c3c(ccc2[nH]1)N(C(=O)c1cc2cc(OC)c(OC)c(OC)c2[nH]1)CC3CCl (stereo not given) | > 100 | > 75.8 | > 100 | > 100 | > 100 | > 100 | > 20.9 | > 100 | > 100 | > 100
5 | NC1CC(=O)c2c(Br)csc21 (stereo not given) | > 100 | > 100 | > 100 | > 100 | 97.5 | > 100 | > 100 | > 100 | 77.7 | > 100
6 | OCCCCCCCCCCCOc1ccc(C2OCC3(CO2)COC(c2ccc(OCCCCCCCCCCCO)cc2)OC3)cc1 (stereo not given) | > 50 | > 50 | > 50 | > 50 | > 50 | > 50 | > 50 | > 50 | > 50 | > 50
7 | CN(Cc1cnc2nc(N)nc(N)c2n1)c1ccc(C(=O)NC(CCC(=O)NCCC(P(=O)(O)O)P(=O)(O)O)C(=O)O)cc1 (stereo not given) | > 100 | > 100 | > 100 | > 100 | > 100 | > 100 | > 100 | > 100 | > 100 | > 100
8 | CS(=O)(=O)O[C@H]1CN2C[C@@H](O)[C@@H](O)[C@H]2[C@H]1CO | > 100 | > 100 | > 100 | > 100 | > 100 | > 100 | > 100 | > 100 | > 100 | > 100
9 | CN1CCN(C(=O)CCNC(=O)Cc2ccc(C(=O)c3ccccc3)cc2)CC1 | > 100 | > 100 | > 100 | > 100 | > 100 | > 100 | > 100 | > 100 | > 100 | > 100
10 | C=C1C(=O)C[C@H]2C(=C)C(=O)O[C@@H]2C2C1CC[C@@]2(C)O (stereo not given in full) | > 100 | 41.1 | > 100 | > 100 | 44 | > 100 | 54.8 | > 100 | > 100 | 33.5
11 | CCCC[C@@H]1CCN2C[C@@H](O)[C@@H](O)[C@@H]2[C@H]1O | > 100 | > 100 | > 100 | > 100 | > 100 | > 100 | > 100 | > 100 | > 100 | > 100
12 | COc1cc(/C=C2\C[C@H]3[C@@H]4CCc5cc(O)ccc5[C@H]4CC[C@]3(C)C2=O)cc(OC)c1OC | 28.6 | 25 | 10.7 | 32.8 | 42.6 | 87.5 | 61.5 | 23.1 | 34.1 | 37.7
13 | COC(=O)CC(C#N)(OP1(=O)OC(c2ccccc2)C(C)N1C)c1ccccc1 (stereo not given) | 52.4 | 53.2 | 74.8 | > 100 | > 100 | > 100 | > 100 | 59.2 | 43.6 | > 100
14 | C[N+](CCCl)(CCCl)Cc1cccc2cccc([N+](=O)[O-])c12 | > 100 | > 100 | > 100 | > 100 | > 100 | > 100 | > 100 | > 100 | > 100 | > 100
15 | Cc1cc(C)nc(NC(=O)c2ccc(Br)s2)c1 | > 100 | > 100 | > 100 | > 100 | > 100 | > 100 | 23.5 | > 100 | > 100 | 79.5
16 | O=C(C=P(c1ccccc1)(c1ccccc1)c1ccccc1)c1ccc(-c2cccc([N+](=O)[O-])c2)s1 | > 100 | > 100 | > 100 | > 100 | > 100 | 81.9 | 27.9 | 55.6 | > 100 | > 100
17 | O=C1NC(=O)C(c2c[nH]c3ccccc23)=C1c1cnc[nH]1 | > 100 | > 100 | > 100 | > 100 | > 100 | > 100 | > 100 | > 100 | > 100 | > 100
18 | CCOC(=O)c1c(NC(=O)c2cccs2)sc2c1CCCC2 | > 100 | > 100 | > 100 | > 100 | > 100 | > 96.3 | > 100 | > 100 | > 100 | > 100

Row | SMILES | TGI (HCT-116 colon) [µM] | TGI (HT29 colon) [µM] | TGI (SR leukemia) [µM] | TGI (IGROV1 ovarian) [µM] | TGI (BT-549 breast) [µM] | TGI (A498 renal) [µM] | TGI (COLO 205 colon) [µM] | TGI (MOLT-4 leukemia) [µM] | TGI (SW-620 colon) [µM] | TGI (M14 melanoma) [µM]
19 | C/C(=N\NC(=S)N1CCCCC1)c1nc2ncccc2[nH]1 | 22.7 | > 100 | 28.6 | > 100 | 28.3 | 65.5 | > 100 | 19.9 | > 100 | 47.7
20 | CC(C)C(=O)[C@@]1(C)SC[C@H]2CCN=C21 | > 100 | > 100 | > 100 | > 100 | > 100 | > 100 | > 100 | > 100 | > 100 | > 100
21 | COC(=O)C1=C(C)NC2=C(C(=O)c3ccccc32)C1c1cn(-c2ccccc2)nc1-c1ccccc1 (stereo not given) | > 100 | > 30.5 | > 21.6 | > 100 | > 100 | > 100 | > 100 | 44.6 | > 100 | > 100
22 | CC(=O)N(C)c1ccc(Nc2cc(C)[nH]c3ccc4ncnc4c23)cc1 | 16.5 | 34 | 23 | 64.4 | 24.5 | 25.2 | 16 | 13.7 | 22.1 | 21.5
23 | CC(C)(C)OC(=O)N1CCc2[nH][nH]c(=O)c2C1 | > 100 | > 100 | > 100 | > 100 | > 100 | > 100 | > 100 | > 100 | > 100 | > 100
24 | CC1(C)CC(=O)c2[nH]c3ccccc3c2CC(=O)NCCc2cn1cn2 | > 100 | > 100 | > 100 | > 100 | > 100 | > 100 | > 100 | > 100 | > 100 | > 100
25 | CCCn1c2ccccc2c2ccc3c(c21)C(=O)C=CC3=O | 3.13 | > 10 | 0.883 | > 10 | 4.9 | > 10 | 5.17 | 2.26 | 3.27 | > 6.11
26 | CC(=O)Nc1ccc(N2C(=O)/C(=C\c3cccc(Oc4ccccc4)c3)S(=O)(=O)C2c2ccccc2)cc1 (stereo not given) | > 100 | > 100 | > 100 | > 100 | > 100 | > 100 | > 100 | 98.4 | > 100 | > 100
27 | Nc1ccc(-c2nc3cc(F)ccc3s2)cc1Cl | > 100 | > 100 | 9.4 | 42.9 | > 63.2 | > 39.3 | > 100 | > 100 | > 100 | > 100
28 | COC(=O)c1ccc(C(=O)NC(Cc2ccc(Oc3cc(CC(NC(=O)c4ccccc4C(=O)OC)C(=O)OC)ccc3OC)cc2)C(=O)OC)cc1 (stereo not given) | > 100 | > 100 | > 100 | > 100 | > 100 | > 100 | > 100 | > 100 | > 100 | > 100
29 | CC1(c2cccs2)CC(c2cccs2)=C(C#N)C(=C(C#N)C#N)N1 (stereo not given) | 31.6 | 34.4 | > 100 | 33.4 | 57.5 | 35.8 | 39.9 | > 100 | 43.7 | 40.5
30 | C=C(CCC/C(C)=C/C=C/[C@]1(C)CCCc2ccoc21)CC(=O)O | > 100 | > 100 | > 100 | > 100 | > 100 | > 100 | > 100 | > 100 | > 100 | > 100
31 | CCCCC1=NNC(=O)C1 | > 100 | > 100 | > 100 | > 100 | > 100 | > 100 | > 100 | > 100 | > 100 | > 100
32 | COc1cc(C2SCC(=O)N2c2ccccn2)cc(OC)c1OC (stereo not given) | > 100 | > 100 | > 100 | > 100 | > 100 | > 100 | > 100 | > 100 | > 100 | > 100
33 | O=C(NC(Cc1c[nH]c2ccccc12)C(=O)Nc1ccc(Br)cc1)OCc1ccccc1 (stereo not given) | 23.7 | 21.6 | 47.4 | 27.6 | 29.8 | 23.7 | 24.7 | 38.9 | 54.6 | 27.6
34 | OC1[C@@H]2[C@@H](O)[C@H](O)[C@@H](O)N2C[C@@H]1O (stereo not given in full) | > 100 | > 100 | > 43.6 | > 100 | > 100 | > 100 | > 100 | > 100 | > 100 | > 100
35 | CCN(CC)CCC(=O)/C=C/c1ccccc1 | 22.4 | 12.4 | 16.1 | 35.5 | 21.9 | > 60.6 | 18 | 24.2 | 23.4 | 33
